The source of these data is patent US20230002373A1, “COMPOUNDS AND COMPOSITIONS FOR TREATING CONDITIONS ASSOCIATED WITH STING ACTIVITY” (IFM Due, Inc., priority 2019, published 2023).

The target of one test is T1, hSTING (Homo sapiens, UniProt Q86WV6, G230A/H232R/R293Q/R71H).
T1 construct: host or cells: THP1-Dual KO-IFNAR2 cells
T1 sequence (Q86WV6 whole entry R71H/G230A/H232R/R293Q): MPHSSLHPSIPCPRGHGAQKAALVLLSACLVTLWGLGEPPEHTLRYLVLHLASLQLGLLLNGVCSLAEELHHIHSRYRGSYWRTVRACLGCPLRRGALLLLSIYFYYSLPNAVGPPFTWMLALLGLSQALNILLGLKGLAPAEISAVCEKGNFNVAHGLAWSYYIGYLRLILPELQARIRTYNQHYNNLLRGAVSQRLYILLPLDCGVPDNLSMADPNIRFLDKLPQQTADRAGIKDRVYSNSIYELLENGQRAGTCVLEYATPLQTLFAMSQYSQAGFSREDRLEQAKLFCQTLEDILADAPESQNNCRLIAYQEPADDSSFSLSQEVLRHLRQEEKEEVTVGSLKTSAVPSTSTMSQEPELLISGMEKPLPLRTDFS
The test is described as follows: STING reporter assay (luciferase) in THP1-Dual KO-IFNAR2 cells stimulated with 2′3′cGAMP. The class given is cell-based. The conditions noted are these: 15 μM 2′3′cGAMP, 24 h, class symbols. As for the experimental part:
STING pathway activation by the compounds described herein was measured using THP1-Dual™ cells (KO-IFNAR2).
THP1-Dual™ KO-IFNAR2 Cells (obtained from invivogen) were maintained in RPMI, 10% FCS, 5 ml P/S, 2 mM L-glut, 10 mM Hepes, and 1 mM sodium pyruvate. Compounds were spotted in empty 384 well tissue culture plates (Greiner 781182) by Echo for a final concentration of 0.0017-100 μM. Cells were plated into the TC plates […], 2×10E6 cells/mL. For activation with STING ligand, 2′3′cGAMP (MW 718.38, obtained from Invivogen), was prepared in Optimem media.
The following solutions were prepared for each 1×384 plate: • Solution A: 2 mL Optimem with one of the following stimuli: • 60 μL of 10 mM 2′3′cGAMP->150 μM stock • Solution B: 2 mL Optimem with 60 μL Lipofectamine 2000->Incubate 5 min at RT
2 mL of solution A and 2 ml Solution B was mixed and incubated for 20 min at room temperature (RT). 20 uL of transfection solution (A+B) was added on top of the plated cells, with a final 2′3′cGAMP concentration of 15 μM. The plates were then centrifuged immediately at 340 g for 1 minute, after which they were incubated at 37° C., 5% CO2, >98% humidity for 24 h. Luciferase reporter activity was then measured. EC50 values were calculated by using standard methods known in the art.
Luciferase reporter assay: 10 μL of supernatant from the assay was transferred to white 384-plate with flat bottom and squared wells. One pouch of QUANTI-Luc™ Plus was dissolved in 25 mL of water. 100 μL of QLC Stabilizer per 25 mL of QUANTI-Luc™ Plus solution was added. 50 μL of QUANTI-Luc™ Plus/QLC solution per well was then added. Luminescence was measured on a Platereader (e.g., Spectramax I3X (Molecular Devices GF3637001)).
Luciferase reporter activity was then measured. EC50 values were calculated by using standard methods known in the art.
A general note: Reporter assays use an easily measured gene product as a stand-in for the process of interest.
For orientation: EC50 means the midpoint of the concentration-response curve. Higher therefore signals weaker potency. Turning to `O=C(NCc1ccc(Cl)c(C(F)(F)F)c1)C(=O)Nc1c[nH]c2cccnc12` [Compound 145, N1-(4-chloro-3-(trifluoromethyl)benzyl)-N2-(1H-pyrrolo[3,2-b]pyridin-3-yl)oxalamide], the concentration for a half-maximal effect (EC50) was in the range of 1 to 5 µM.

Turning to `Cc1cc(NC(=O)C(=O)Nc2c[nH]c3ccncc23)cc(C(F)(F)F)c1` [Compound 115, N^1-(3-methyl-5-(trifluoromethyl)phenyl)-N^2-(1H-pyrrolo[3,2-c]pyridin-3-yl)oxalamide], the EC50 is 0.2 to 1 µM.

Molecule `O=C(NCc1ccc(-c2ccccc2C(F)(F)F)cc1)C(=O)Nc1c[nH]c2cccnc12` [Compound 110, N^1-(1H-pyrrolo[3,2-b]pyridin-3-yl)-N^2-((2′-(trifluoromethyl)-[1,1′-biphenyl]-4-yl)methyl)oxalamide] gave an EC50 of 1 to 5 µM.

`Cc1cc(NC(=O)C(=O)Nc2c[nH]c3cccnc23)cc(C(F)(F)F)c1` [Compound 107, N^1-(3-methyl-5-(trifluoromethyl)phenyl)-N^2-(1H-pyrrolo[3,2-b]pyridin-3-yl)oxalamide] yielded an EC50 of 0.2 to 1 µM.

Consider `O=C(Nc1ccc(C(F)(F)F)cc1)C(=O)Nc1c[nH]c2ncc(F)cc12` [Compound 125], for which the EC50 was 1 to 5 µM.

Take `O=C(NCc1ccc(Cl)c(OC(F)(F)F)c1)C(=O)Nc1c[nH]c2c(F)cncc12` [Compound 208]: the EC50 lay within 1 to 5 µM.

In the case of `Cc1cc(F)c(Cl)cc1NC(=O)C(=O)Nc1c[nH]c2cccnc12` [Compound 136, N1-(5-chloro-4-fluoro-2-methylphenyl)-N2-(1H-pyrrolo[3,2-b]pyridin-3-yl)oxalamide], the EC50 was in the range of 5 to 100 µM.

Take `Cc1ccc(CNC(=O)C(=O)Nc2c[nH]c3ccc(Br)nc23)cc1C(F)(F)F` [Compound 128]: the EC50 was 0.2 to 1 µM.

Regarding `O=C(NCc1ccc(Cl)cc1C(F)(F)F)C(=O)Nc1c[nH]c2ccncc12` [Compound 167, N1-(4-chloro-2-(trifluoromethyl)-benzyl)-N2-(1H-pyrrolo[3,2-c]pyridin-3-yl)oxalamide], the EC50 lay in the range of 0.2 to 1 µM.

Still in this test, the particulars now being: 15 μM 2′3′cGAMP, 24 h, numeric bounds.
With `O=C(NCC1(c2ccccc2)CC1)C(=O)Nc1c[nH]c2ccncc12` [Compound 156, N1-((1-phenylcyclopropyl)-methyl)-N2-(1H-pyrrolo[3,2-c]pyridin-3-yl)oxalamide], the EC50 was > 30 µM.
